Earlier results, collected in patent publication US20260272825A1, “LEVONORGESTREL AND COMPOSITIONS COMPRISING THE SAME” (CHEMO RESEARCH, S.L., priority 2023, published 2026).

Tested on: women

C#C[C@]1(OC(C)=O)CC[C@H]2[C@@H]3CCC4=CC(=O)CC[C@@H]4[C@H]3CC[C@@]21C [NETA, norethisterone acetate]
Dosage providing ovulation inhibition (given continuously over 28 days): ≥ 0.35 mg/daily

C#C[C@]1(O)CC[C@H]2[C@@H]3CCC4=CCCC[C@@H]4[C@H]3C(=C)C[C@@]21CC [desogestrel]
Cycles with ovulation inhibited (POP containing desogestrel 0.075 mg): at least 98%

C[C@]12CCC3=C4CCC(=O)C=C4CC[C@H]3[C@@H]1CC[C@@]2(O)CC#N [DNG, Dienogest]
Ovulation inhibition / ovarian activity, in words (2 mg daily): provides ovulation inhibition, but ovarian activity is not completely suppressed
